Measurements taken from PMC7180948, “New Insights into 4-Anilinoquinazolines as Inhibitors of Cardiac Troponin I–Interacting Kinase (TNNi3K)” (Molecules, 2020).

How the values were obtained:
Experiment in all cases: biochemical
Design in all cases: KINOMEscan competition binding panel (Eurofins DiscoverX), single concentration, % inhibition
Settings in all cases: read-out: 7 at 1 µM % inhibition
[1] = molecular target: PRKG2 (Homo sapiens, UniProt Q13237)
In short: (§1)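 Values come from single-concentration (1 µM) profiling in the Eurofins DiscoverX KINOMEscan competition-binding platform, which covers over 400 kinases.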

[2] = molecular target: PRKD1 (Homo sapiens, UniProt Q15139)
In short: as §1

[3] = molecular target: FLT3(ITD,F691L) (Homo sapiens, UniProt P36888, F691L/ITD)
In short: as §1

[4] = molecular target: AXL (Homo sapiens, UniProt P30530)
In short: as §1

[5] = molecular target: T1, DMPK2 (Homo sapiens, UniProt Q6DT37)
T1 construct: gene CDC42BPG
In short: as §1

[6] = molecular target: WNK2 (Homo sapiens, UniProt Q9Y3S1)
In short: as §1

[7] = molecular target: LIMK1 (Homo sapiens, UniProt P53667)
In short: as §1

[8] = molecular target: T2, RSK3(Kin.Dom.1-N-terminal) (Homo sapiens, UniProt Q15349)
T2 construct: gene RPS6KA2; Kin.Dom.1-N-terminal
In short: as §1

[9] = molecular target: T3, NIK (Homo sapiens, UniProt Q99558)
T3 construct: gene MAP3K14
In short: as §1

[10] = molecular target: KIT(L576P) (Homo sapiens, UniProt P10721, L576P)
In short: as §1

[11] = molecular target: T4, ERK1 (Homo sapiens, UniProt P27361)
T4 construct: gene MAPK3
In short: as §1

[12] = molecular target: T5, DLK (Homo sapiens, UniProt Q12852)
T5 construct: gene MAP3K12
In short: as §1

[13] = molecular target: CDKL1 (Homo sapiens, UniProt Q00532)
In short: as §1

[14] = molecular target: EGFR(G719S) (Homo sapiens, UniProt P00533, G719S)
In short: as §1

[15] = molecular target: ROCK2 (Homo sapiens, UniProt O75116)
In short: as §1

[16] = molecular target: RAF1 (Homo sapiens, UniProt P04049)
In short: as §1

[17] = molecular target: T6, NIM1 (Homo sapiens, UniProt Q8IY84)
T6 construct: gene NIM1K
In short: as §1

[18] = molecular target: CAMKK1 (Homo sapiens, UniProt Q8N5S9)
In short: as §1

[19] = molecular target: T7, RSK4(Kin.Dom.2-C-terminal) (Homo sapiens, UniProt Q9UK32)
T7 construct: gene RPS6KA6; Kin.Dom.2-C-terminal
In short: as §1

[20] = molecular target: T8, RSK4(Kin.Dom.1-N-terminal) (Homo sapiens, UniProt Q9UK32)
T8 construct: gene RPS6KA6; Kin.Dom.1-N-terminal
In short: as §1

[21] = molecular target: T9, PYK2 (Homo sapiens, UniProt Q14289)
T9 construct: gene PTK2B
In short: as §1

[22] = molecular target: TAOK2 (Homo sapiens, UniProt Q9UL54)
In short: as §1

[23] = molecular target: CSNK1G1 (Homo sapiens, UniProt Q9HCP0)
In short: as §1

T6 sequence (Q8IY84 whole entry): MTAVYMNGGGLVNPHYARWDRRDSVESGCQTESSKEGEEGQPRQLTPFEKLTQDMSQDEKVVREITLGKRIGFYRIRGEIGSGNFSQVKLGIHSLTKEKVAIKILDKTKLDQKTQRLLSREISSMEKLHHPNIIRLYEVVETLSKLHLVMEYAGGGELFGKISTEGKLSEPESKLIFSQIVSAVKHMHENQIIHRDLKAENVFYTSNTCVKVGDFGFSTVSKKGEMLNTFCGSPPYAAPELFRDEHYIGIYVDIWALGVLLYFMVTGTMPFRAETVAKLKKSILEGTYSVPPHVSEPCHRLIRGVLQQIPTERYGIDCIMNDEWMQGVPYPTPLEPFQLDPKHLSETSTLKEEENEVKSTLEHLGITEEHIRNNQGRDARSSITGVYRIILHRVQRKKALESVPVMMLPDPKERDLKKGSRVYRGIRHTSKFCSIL
Sequence of EGFR(G719S) (P00533 whole entry G719S): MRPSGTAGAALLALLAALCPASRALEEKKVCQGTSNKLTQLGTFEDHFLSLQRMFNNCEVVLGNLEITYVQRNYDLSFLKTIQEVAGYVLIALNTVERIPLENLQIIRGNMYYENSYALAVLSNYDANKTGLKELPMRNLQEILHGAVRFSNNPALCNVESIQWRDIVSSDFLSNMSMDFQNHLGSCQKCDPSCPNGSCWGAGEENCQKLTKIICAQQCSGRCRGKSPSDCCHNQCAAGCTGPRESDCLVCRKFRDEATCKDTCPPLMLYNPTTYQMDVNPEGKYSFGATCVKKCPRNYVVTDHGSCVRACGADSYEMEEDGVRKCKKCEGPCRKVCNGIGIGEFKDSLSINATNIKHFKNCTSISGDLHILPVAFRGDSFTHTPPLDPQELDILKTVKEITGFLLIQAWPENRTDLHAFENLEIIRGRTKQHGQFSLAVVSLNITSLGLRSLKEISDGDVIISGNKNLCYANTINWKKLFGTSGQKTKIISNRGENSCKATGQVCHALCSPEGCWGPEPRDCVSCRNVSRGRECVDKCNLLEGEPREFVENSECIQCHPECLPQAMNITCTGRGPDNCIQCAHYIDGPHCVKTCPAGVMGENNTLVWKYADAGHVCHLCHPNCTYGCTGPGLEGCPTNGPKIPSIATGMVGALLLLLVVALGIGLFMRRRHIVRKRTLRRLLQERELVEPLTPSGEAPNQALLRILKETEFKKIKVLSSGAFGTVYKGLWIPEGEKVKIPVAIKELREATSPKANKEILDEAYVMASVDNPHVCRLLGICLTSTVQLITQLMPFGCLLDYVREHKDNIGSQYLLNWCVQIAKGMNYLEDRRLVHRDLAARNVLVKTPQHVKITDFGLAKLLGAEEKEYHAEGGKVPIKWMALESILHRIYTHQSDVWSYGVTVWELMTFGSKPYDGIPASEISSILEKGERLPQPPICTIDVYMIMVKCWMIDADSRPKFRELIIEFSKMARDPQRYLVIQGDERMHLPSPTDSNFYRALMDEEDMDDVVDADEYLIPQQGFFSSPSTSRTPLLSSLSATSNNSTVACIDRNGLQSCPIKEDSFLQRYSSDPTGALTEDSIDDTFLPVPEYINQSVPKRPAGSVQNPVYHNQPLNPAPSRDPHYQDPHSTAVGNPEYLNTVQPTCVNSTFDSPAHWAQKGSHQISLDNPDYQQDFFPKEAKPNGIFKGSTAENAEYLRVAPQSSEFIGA
Sequence of RAF1 (P04049 whole entry): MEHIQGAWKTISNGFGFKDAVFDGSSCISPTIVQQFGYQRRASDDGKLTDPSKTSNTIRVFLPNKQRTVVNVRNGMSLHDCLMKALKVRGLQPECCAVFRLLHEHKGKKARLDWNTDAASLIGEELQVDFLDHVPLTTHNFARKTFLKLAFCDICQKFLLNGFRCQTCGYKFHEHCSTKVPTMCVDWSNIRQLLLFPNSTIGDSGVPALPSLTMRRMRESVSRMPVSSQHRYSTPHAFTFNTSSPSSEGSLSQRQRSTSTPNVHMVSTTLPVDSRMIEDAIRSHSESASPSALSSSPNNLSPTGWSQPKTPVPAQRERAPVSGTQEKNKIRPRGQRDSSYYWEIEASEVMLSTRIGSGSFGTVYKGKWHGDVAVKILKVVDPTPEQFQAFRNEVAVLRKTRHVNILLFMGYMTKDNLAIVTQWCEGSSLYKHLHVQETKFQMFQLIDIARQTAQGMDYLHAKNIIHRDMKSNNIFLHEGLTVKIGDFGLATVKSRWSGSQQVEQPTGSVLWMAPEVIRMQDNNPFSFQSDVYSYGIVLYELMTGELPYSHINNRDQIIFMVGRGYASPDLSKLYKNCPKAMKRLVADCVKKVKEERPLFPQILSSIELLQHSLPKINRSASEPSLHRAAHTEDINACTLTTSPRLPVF
Sequence of FLT3(ITD,F691L) (P36888 564-993 F691L): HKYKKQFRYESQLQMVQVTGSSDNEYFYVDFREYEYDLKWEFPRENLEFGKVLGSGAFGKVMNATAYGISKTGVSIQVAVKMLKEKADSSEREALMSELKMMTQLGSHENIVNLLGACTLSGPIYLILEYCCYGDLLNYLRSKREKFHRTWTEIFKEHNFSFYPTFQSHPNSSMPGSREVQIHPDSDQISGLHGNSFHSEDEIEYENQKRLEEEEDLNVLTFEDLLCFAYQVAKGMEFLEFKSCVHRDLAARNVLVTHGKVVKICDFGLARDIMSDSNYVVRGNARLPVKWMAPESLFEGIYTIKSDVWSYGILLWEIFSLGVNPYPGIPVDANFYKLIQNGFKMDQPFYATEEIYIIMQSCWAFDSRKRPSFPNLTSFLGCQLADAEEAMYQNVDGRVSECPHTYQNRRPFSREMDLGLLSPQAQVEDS
T2 sequence (Q15349 whole entry): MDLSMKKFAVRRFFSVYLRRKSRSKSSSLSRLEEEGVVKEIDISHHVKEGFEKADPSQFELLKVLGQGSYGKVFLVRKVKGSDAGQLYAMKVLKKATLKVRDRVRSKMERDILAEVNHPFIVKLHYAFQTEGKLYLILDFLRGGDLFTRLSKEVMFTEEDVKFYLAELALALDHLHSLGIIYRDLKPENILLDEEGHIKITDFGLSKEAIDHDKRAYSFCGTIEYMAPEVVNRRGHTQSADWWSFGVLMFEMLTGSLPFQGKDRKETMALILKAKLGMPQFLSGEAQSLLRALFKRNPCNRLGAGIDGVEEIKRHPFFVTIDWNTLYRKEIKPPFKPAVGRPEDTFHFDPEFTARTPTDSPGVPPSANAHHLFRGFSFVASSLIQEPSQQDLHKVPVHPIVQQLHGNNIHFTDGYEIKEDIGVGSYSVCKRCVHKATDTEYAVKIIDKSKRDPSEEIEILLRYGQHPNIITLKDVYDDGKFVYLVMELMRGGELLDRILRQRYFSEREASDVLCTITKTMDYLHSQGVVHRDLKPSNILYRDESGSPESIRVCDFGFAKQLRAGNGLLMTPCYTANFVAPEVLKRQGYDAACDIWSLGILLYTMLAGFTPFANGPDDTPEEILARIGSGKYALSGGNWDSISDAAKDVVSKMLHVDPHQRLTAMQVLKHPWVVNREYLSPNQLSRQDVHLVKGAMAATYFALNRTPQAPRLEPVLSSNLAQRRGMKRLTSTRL
Sequence of TAOK2 (Q9UL54 whole entry): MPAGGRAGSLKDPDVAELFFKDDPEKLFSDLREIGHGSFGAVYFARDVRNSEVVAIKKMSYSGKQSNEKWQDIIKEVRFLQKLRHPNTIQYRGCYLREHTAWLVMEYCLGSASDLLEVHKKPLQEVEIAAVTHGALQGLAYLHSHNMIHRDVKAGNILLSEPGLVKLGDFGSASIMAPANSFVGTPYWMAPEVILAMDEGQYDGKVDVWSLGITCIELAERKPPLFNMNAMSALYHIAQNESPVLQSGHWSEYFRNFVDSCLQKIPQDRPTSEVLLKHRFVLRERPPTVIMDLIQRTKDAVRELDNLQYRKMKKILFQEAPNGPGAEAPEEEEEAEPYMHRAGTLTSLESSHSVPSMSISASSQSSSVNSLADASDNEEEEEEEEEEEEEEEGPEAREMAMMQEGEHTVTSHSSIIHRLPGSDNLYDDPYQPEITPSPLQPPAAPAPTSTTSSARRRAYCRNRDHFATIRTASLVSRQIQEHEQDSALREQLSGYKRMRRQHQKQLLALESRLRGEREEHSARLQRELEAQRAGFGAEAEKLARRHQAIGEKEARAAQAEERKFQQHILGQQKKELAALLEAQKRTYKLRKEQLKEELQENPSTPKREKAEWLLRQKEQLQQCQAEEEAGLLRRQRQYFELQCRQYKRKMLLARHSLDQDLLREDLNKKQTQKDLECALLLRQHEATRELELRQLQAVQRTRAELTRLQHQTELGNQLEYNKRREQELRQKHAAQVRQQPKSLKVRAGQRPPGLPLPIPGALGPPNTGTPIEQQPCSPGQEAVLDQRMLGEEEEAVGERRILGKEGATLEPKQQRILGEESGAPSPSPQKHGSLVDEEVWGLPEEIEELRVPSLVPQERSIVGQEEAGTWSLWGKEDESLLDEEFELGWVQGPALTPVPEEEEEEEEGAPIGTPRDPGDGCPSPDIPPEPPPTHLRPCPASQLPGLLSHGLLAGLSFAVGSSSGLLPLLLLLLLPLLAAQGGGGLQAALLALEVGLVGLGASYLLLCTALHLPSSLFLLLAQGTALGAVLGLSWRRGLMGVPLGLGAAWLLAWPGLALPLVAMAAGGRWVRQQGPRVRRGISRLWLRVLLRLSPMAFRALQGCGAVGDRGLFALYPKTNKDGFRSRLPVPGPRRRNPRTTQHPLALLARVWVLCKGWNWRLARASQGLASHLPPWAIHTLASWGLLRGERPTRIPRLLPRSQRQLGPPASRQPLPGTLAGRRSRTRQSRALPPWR
T4 sequence (P27361 whole entry): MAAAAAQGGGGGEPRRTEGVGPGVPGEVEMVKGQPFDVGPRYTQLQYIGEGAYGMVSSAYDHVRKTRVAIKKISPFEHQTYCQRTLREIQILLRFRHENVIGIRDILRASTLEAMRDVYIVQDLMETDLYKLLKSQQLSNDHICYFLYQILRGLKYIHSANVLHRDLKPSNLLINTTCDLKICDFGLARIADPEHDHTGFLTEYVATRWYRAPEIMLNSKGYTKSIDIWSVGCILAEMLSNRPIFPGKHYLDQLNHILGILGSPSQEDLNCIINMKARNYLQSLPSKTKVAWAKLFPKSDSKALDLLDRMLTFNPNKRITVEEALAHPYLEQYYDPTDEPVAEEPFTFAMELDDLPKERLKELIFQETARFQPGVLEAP

`CNS(=O)(=O)c1ccc(N(C)C)c(Nc2ncnc3cc(OC)c(OC)cc23)c1` [compound 7, 3-((6,7-dimethoxyquinazolin-4-yl)amino)-4-(dimethylamino)-N-methylbenzenesulfonamide] was tested, and the inhibition at 1 µM [1] was 14%, the inhibition at 1 µM [2] was 20% and the inhibition at 1 µM [3] was 22%. It also gave an inhibition at 1 µM [4] of 12%, an inhibition at 1 µM [5] of 0% and an inhibition at 1 µM [6] of 0%. The inhibition at 1 µM [7] was 0%, the inhibition at 1 µM [8] was 0% and the inhibition at 1 µM [9] was 0%. It also gave an inhibition at 1 µM [10] of 49%, an inhibition at 1 µM [11] of 0% and an inhibition at 1 µM [12] of 21%. The inhibition at 1 µM [13] was 0%, the inhibition at 1 µM [14] was 0% and the inhibition at 1 µM [15] was 0%. The inhibition at 1 µM [16] was 23%, the inhibition at 1 µM [17] was 31% and the inhibition at 1 µM [18] was 5%. The inhibition at 1 µM [19] was 24%, the inhibition at 1 µM [20] was 34% and the inhibition at 1 µM [21] was 0%. For the same compound, the inhibition at 1 µM [22] was 20% and the inhibition at 1 µM [23] was 0%.
